Measurements taken from patent US10844049B2, “GLP-1R agonists and uses thereof” (QILU REGOR THERAPEUTICS INC., priority 2018, dated 2020).

Molecular target: GLP1R (Homo sapiens, UniProt P43220)
Test: GLP1R cAMP HTRF assay, HEK293/GLP-1R/CRE/Luc (HEK293T cells)
Assay type: cell-based
Settings: read-out: EC50
Procedure, shortened: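 cAMP accumulation via HTRF after 30 min, 37 °C exposure of 1000 receptor-expressing cells/well to compound (0.5% DMSO final) in IBMX (500 μM)/0.1% BSA DPBS.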

GLP1R, sequence (P43220 24-463): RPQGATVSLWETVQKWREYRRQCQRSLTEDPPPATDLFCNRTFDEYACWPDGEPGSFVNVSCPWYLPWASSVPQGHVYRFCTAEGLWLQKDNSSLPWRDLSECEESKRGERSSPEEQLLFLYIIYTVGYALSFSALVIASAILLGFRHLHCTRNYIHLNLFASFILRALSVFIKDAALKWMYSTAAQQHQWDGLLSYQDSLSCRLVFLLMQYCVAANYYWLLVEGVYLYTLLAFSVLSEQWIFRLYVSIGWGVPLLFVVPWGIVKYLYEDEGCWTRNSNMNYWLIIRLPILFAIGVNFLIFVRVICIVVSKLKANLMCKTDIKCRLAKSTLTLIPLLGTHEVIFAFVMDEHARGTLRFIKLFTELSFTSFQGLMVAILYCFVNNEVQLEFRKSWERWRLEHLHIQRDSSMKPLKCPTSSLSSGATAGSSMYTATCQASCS

| Structure (SMILES) | EC50 |
| --- | --- |
| O=C(O)c1ccc2nc(CN3CC=C(c4cccc(OCc5ccc(OC(F)(F)F)nc5)n4)CC3)n(C[C@@H]3CCO3)c2c1 [Compound 121, (S)-1-(oxetan-2-ylmethyl)-2-((6-((6-(trifluoromethoxy)pyridin-3-yl)methoxy)-3′,6′-dihydro-[2,4′-bipyridin]-1′(2′H)-yl)methyl)-1H-benzo[d]imidazole-6-carboxylic acid] | ≤ 150 nM |
| O=C(O)c1ccc2nc(CN3CC=C(c4cccc(OCc5ccc6c(c5)OCCO6)n4)CC3)n(C[C@@H]3CCO3)c2c1 [Compound 151, (S)-2-((6-((2,3-dihydrobenzo[b][1,4]dioxin-6-yl)methoxy)-3′,6′-dihydro-[2,4′-bipyridin]-1′(2′H)-yl)methyl)-1-(oxetan-2-ylmethyl)-1H-benzo[d]imidazole-6-carboxylic add] | ≤ 15 nM |
| O=C(O)c1ccc2nc(CN3CCN(c4ccc5c(n4)N(Cc4ccc(Cl)cc4F)CCO5)CC3)n(C[C@@H]3CCO3)c2c1 [Compound 4, (S)-2-((4-(4-(4-chloro-2-fluorobenzyl)-3H-dihydro-2H-pyrido[3,2-b][1H]oxazin-6-yl)piperazin-1-yl)methyl)-1-(oxetan-2-ylmethyl)-1H-benzo[d]imidazole-6-carboxylic acid] | > 1000 nM |
| N#Cc1ccc(COc2cccc(N3CC=C(Cc4nc5ccc(C(=O)O)cc5n4C[C@@H]4CCO4)CC3)n2)c(F)c1 [Compound 240, (S)-2-((6′-((4-cyano-2-fluorobenzyl)oxy)-3,6-dihydro-2H-[1,2′-bipyridin]-4-yl)methyl)-1-(oxetan-2-ylmethyl)-1H-benzo[d]imidazole-6-carboxylic add] | ≤ 150 nM |
| O=C(O)c1cc2c(cn1)nc(CN1CC=C(c3cccc(OCc4ccc(Cl)cc4F)n3)CC1)n2C[C@@H]1CCO1 [Compound 170, (S)-2-((G-((4-chloro-2-fluorobenzyl)oxy)-3′,6′-dihydro-[2H′-bipyridin]-1 (2′H)-yl)methyl)-1-(oxetan-2-ylmethyl)-1H-imidazo[4,5-c]pyridine-6-carboxylic acid] | ≤ 15 nM |
| O=C(O)c1ccc2nc(CN3CC=C(c4cc(OCc5ccc(Cl)cc5F)ccc4F)CC3)n(C[C@@H]3CCO3)c2c1 [Compound 43, (S)-2-((4-(5-((4-chloro-2-fluorobenzyl)oxy)-2-fluorophenyl)-3,6-dihydropyridin-1(2H)-yl)methyl)-1-(oxetan-2-ylmethyl)-1H-benzo[d]imidazole-6-carboxylic add] | ≤ 15 nM |
| O=C(O)c1ccc2nc(CN3CCN(c4ncc(F)c(OCc5ccc(Cl)cc5F)n4)CC3)n(C[C@@H]3CCO3)c2c1 [Compound 180, (S)-2-((4-(4-(4-chloro-2-fluorobenzyloxy)-5-fluoropyrimidin-2-yl)piperazin-1-yl)methyl)-1-(oxetan-2-ylmethyl)-1H-benzo[d]imidazole-6-carboxylic add] | ≤ 15 nM |
| O=C(O)c1ccc2nc(CN3CC=C(c4cccc(OCc5ccc(F)c(F)c5)n4)CC3)n(C[C@@H]3CCO3)c2c1 [Compound 145, (S)-2-((6((3,4-difluorobenzyl)oxy)-3′,6′-dihydro-[2,4′-bipyridin]-1′(2′H)-yl)methyl)-1-(oxetan-2-ylmethyl)-1H-benzo[d]imidazole-6-carboxylic acid] | ≤ 15 nM |
| O=C(O)c1ccc2nc(CN3CCC(N4CCc5ccc(-c6ccc(Cl)cc6F)cc5C4=O)CC3)n(C[C@@H]3CCO3)c2c1 [Compound 54, (S)-2-((4-(7-(4-chloro-2-fluorophenyl)-1-oxo-3,4-dihydroisoquinolin-2(1H)-yl)piperidin-1-yl)methyl)-1-(oxetan-2-ylmethyl)-1 h-benzo[d]imidazole-6-carboxylic acid] | > 1000 nM |
| O=C(O)c1ccc2nc(CC3CCN(c4cccc(OCc5ccc(Cl)cn5)n4)CC3)n(C[C@@H]3CCO3)c2c1F [Compound 232, (S)-2-((l-(6-((5-chloropyridin-2-yl)methoxy)pyridin-2-yl)piperidin-4-yl)methyl)-7-fluoro-1-(oxetan-2-ylmethyl)-1H-benzo[d]imidazole-6-carboxylic acid] | ≤ 150 nM |
| O=C(O)c1ccc2nc(CN3CC=C(c4cccc(OCc5ncc(C(F)(F)F)cc5F)n4)CC3)n(C[C@@H]3CCO3)c2c1 [Compound 149, (S)-2-((6-((3-fluoro-5-(trifluoromethyl)pyridin-2-yl)methoxy)-3′,6′-dihydro-[2H′-bipyridin]-1′(2′II)-yl)methyl)-1-(oxetan-2-ylmethyl)-1H-benzo[d]imidazole-6-carboxylic acid] | ≤ 15 nM |
| Cc1ccc(C2=CCN(Cc3nc4ccc(C(=O)O)cc4n3C[C@@H]3CCO3)CC2)cc1OCc1ccc(Cl)cc1F [Compound 64, (S)-2-((4-(3-((4-chloro-2-fluorobenzyl)oxy)-4-methylphenyl)-3,6-dihydropyridin-1(2H)-yl)methyl)-1-(oxetan-2-ylmethyl)-1H-benzo[d]imidazole-6-carboxylic acid] | ≤ 150 nM |
| O=C(O)c1ccc2nc(CN3CCN(c4cccc(OCc5ccc(C#CC6CC6)cc5F)c4)CC3)n(C[C@@H]3CCO3)c2c1 [Compound 190, (S)-2-((4-(3-((4-(cyclopropylethynyl)-2-fluorobenzyl)oxy)phenyl)piperazin-1-yl)methyl)-1-(oxetan-2-ylmethyl)-1H-benzo[d]imidazole-6-carboxylic acid] | ≤ 150 nM |
| N#Cc1ccc(COc2cccc(C3=CCN(Cc4nc5ccc(C(=O)O)cc5n4C[C@@H]4CCO4)CC3)c2)c(F)c1 [Compound 175, (S)-2-((4-(3-((4-cyano-2-fluorobenzyl)oxy)phenyl)-3,6-dihydropyridin-1(2H)-yl)methyl)-1-(oxetan-2-ylmethyl)-1H-benzo[d]imidazole-6-carboxylic acid] | ≤ 15 nM |
| O=C(O)c1ccc2nc(CN3CC=C(c4cc5cn[nH]c5c(OCc5ccc(Cl)cc5F)n4)CC3)n(C[C@@H]3CCO3)c2c1 [Compound 103, (S)-2-((4-(7-((4-chloro-2-fluorobenzyl)oxy)-1H-pyrazolo[3H-c]pyridin-5-yl)-3,6-dihydropyridin-1(2H)-yl)methyl)-1-(oxetan-2-ylmethyl)-1H-benzo[d]imidazole-6-carboxylic add] | ≤ 150 nM |
| O=C(O)c1ccc2nc(CN3CC=C(c4ccc5c(n4)N(Cc4ccc(Cl)cc4F)CCCO5)CC3)n(C[C@@H]3CCO3)c2c1 [Compound 59, (S)-2-((4-(5-(4-chloro-2-fluorobenzyl)-2,3,4,5-tetrahydropyrido[3,2-b][1,4]oxazepin-7-yl)-3,6-dihydropyridin-1(2H)-yl)methyl)-1-(oxetan-2-ylmethyl)-1H-benzo[d]imidazole-6-carboxylic add] | > 1000 nM |
| O=C(O)c1ccc2nc(CN3CC=C(c4nccc(OCc5ccc(Cl)cc5F)n4)CC3)n(C[C@@H]3CCO3)c2c1 [Compound 33, (S)-2-((4-(4-(4-chloro-2-fluorobenzyloxy)pyrimidin-2-yl)-5,6-dihydropyridin-1(2H)-yl)methyl)-1-(oxetan-2-ylmethyl)-1 h-benzo[d]imidazole-6-carboxylic acid] | ≤ 15 nM |
| Cc1ccc(COc2cccc(C3=CCN(Cc4nc5ccc(C(=O)O)cc5n4C[C@@H]4CCO4)CC3)n2)cc1 [Compound 146, (S)-2-((6-((4-methylbenzyl)oxy)-3′,6′-dihydro-[2,4′-bipyridin]-1′(2′H)-yl)methyl)-1-(oxetan-2-ylmethyl)-1H-benzo[d]imidazole-6-carboxylic acid] | ≤ 15 nM |
| O=C(O)c1ccc2nc(CN3CC=C(c4ccnc(OCc5ccc(C(F)(F)F)nc5)n4)CC3)n(C[C@@H]3CCO3)c2c1 [Compound 219, (S)-1-(oxetan-2-ylmethyl)-2-((4-(2-((6-(trifluoromethyl)pyridin-3-yl)methoxy)pyrimidin-4-yl)-5,6-dihydropyridin-1(2H)-yl)methyl)-1H-benzo[d]imidazole-6-carboxylic acid] | ≤ 1000 nM |
| O=C(O)c1ccc2cc(CN3CCN(c4cccc(OCc5ccc(Cl)cc5F)n4)CC3)n(C[C@@H]3CCO3)c2c1 [Compound 49, (S)-2-((4-(6-(4-chloro-2-fluorobenzyloxy)pyridin-2-yl)piperazin-1-yl)methyl)-1-(oxetan-2-ylmethyl)-1 h-indole-6-carboxylic acid] | > 1000 nM |
| O=C(O)c1ccc2nc(CN3CC=C(c4cccc(OCc5cc(F)cc(F)c5)n4)CC3)n(C[C@@H]3CCO3)c2c1 [Compound 142, (S)-2-((6-((3,5-difluorobenzyl)oxy)-3′,6′-dihydro-[2,4′-bipyridin]-1′(2′H)-yl)methyl)-1-(oxetan-2-ylmethyl)-1H-benzo[d]imidazole-6-carboxylic acid] | ≤ 150 nM |
| O=C(O)c1ccc2nc(CN3CC=C(c4cccc(OCc5ccc(Cl)cn5)n4)CC3)n(C[C@@H]3CCO3)c2c1 [Compound 116, (S)-2-((6-((5-chloropyridin-2-yl)methoxy)-3′,6′-dihydro-[2H′-bipyridin]-1′(2′H)-yl)methyl)-1-(oxetan-2-ylmethyl)-1H-benzo[d]imidazole-6-carboxylic add] | ≤ 15 nM |
| O=C(O)c1ccc2nc(CN3CC=C(c4ccnc(OCc5ccc(C#CC6CC6)cc5F)n4)CC3)n(C[C@@H]3CCO3)c2c1 [Compound 201, (S)-2-((4-(2-((4-(cyclopropylethynyl)-2-fluorobenzyl)oxy)pyrimidin-4-yl)-3,6-dihydropyridin-1(2H)-yl)methyl)-1-(oxetan-2-ylmethyl)-1H-benzo[d]imidazole-6-carboxylic acid] | ≤ 15 nM |
| O=C(O)c1ccc2nc(CN3CCCN(c4cccc(OCc5ccc(Cl)cc5F)n4)C(=O)C3)n(C[C@@H]3CCO3)c2c1 [Compound 56, (S)-2-((4-(6-((4-chloro-2-fluorobenzyl)oxy)pyridin-2-yl)-3-oxo-1,4-diazepan-1-yl)methyl)-1-(oxetan-2-ylmethyl)-1H-benzo[d]imidazole-6-carboxylic acid] | > 1000 nM |
| O=C(O)c1ccc2nc(CN3CC=C(c4ncc(F)c(NCc5ccc(Cl)cc5F)n4)CC3)n(C[C@@H]3CCO3)c2c1 [Compound 122, (S)-2-((4-(4-(4-chloro-2-fluorobenzylamino)-5-fluoropyrimidin-2-yl)-5,6-dihydropyridin-1(2H)-yl)methyl)-1-(oxetan-2-ylmethyl)-1H-benzo[d]imidazole-6-carboxylic acid] | ≤ 150 nM |
